Assay results taken from patent US20130071432A1 (priority 2011, published 2013).

How the values were obtained:
VSV = conditions: mouse, in vivo; cited from earlier work
[1] = target: T1, full length RNase L activated by 2-5A (Homo sapiens, UniProt Q05823); experiment: biochemical
T1 sequence (Q05823 1-741): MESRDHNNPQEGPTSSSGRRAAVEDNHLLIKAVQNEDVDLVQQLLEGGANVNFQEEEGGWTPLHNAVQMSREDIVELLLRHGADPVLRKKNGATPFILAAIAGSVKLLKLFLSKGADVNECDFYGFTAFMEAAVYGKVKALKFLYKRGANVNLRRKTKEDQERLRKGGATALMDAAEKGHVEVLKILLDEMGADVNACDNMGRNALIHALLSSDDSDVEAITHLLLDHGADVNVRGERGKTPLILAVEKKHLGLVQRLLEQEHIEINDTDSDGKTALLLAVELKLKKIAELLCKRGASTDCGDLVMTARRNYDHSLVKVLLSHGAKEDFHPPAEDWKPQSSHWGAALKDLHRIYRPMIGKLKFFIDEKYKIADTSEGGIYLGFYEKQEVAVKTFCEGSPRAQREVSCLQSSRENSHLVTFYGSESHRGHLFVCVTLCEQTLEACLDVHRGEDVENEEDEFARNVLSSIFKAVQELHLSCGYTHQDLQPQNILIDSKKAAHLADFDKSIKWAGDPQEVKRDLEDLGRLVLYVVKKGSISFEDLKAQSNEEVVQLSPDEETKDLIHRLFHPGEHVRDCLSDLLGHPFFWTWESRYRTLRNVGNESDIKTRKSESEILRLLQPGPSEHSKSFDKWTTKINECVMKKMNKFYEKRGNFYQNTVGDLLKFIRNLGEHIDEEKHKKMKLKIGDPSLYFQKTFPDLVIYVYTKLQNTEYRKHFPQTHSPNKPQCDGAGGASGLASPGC

in vitro [2] = conditions: human, mouse, reduction in cell viability
in vitro [3] = conditions: human
in vitro [4] = conditions: human; remark: listed apart in the source
[5] = target: T2, constitutively active, truncated mutant RNase L(NΔ335) (Homo sapiens, UniProt Q05823); experiment: biochemical
T2 sequence (Q05823 336-741 limits assumed): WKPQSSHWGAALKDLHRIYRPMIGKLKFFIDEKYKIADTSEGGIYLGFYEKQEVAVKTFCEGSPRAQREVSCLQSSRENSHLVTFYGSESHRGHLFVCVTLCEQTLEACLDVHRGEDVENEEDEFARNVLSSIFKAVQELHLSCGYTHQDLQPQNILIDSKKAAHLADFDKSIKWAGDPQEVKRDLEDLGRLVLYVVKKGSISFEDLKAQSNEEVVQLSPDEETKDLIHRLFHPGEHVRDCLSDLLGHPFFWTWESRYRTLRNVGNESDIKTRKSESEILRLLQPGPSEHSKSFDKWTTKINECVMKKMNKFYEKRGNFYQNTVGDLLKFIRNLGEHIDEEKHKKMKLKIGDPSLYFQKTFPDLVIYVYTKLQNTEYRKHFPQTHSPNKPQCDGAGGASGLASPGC

[6] = in vivo; cited from earlier work

Compound	induction of antiviral antibodies against VSV challenge (VSV)	IC50 [1] [nM]	cytotoxicity (in vitro [2]) [%]	cytotoxicity (in vitro [3]) [%]	cytotoxicity (in vitro [4]) [%]	IC50 [5] [nM]	serum concentrations [6]
O=P1(N(CCCl)CCCl)NCCCO1 (stereo not shown) [CPA, cyclophosphamide]	completely suppressed induction of antiviral antibodies						
CCN(CC)CCNC(=O)c1c(C)[nH]c(/C=C2\C(=O)Nc3ccc(F)cc32)c1C [sunitinib]		1400	~20	60	60	1400	equivalent to those of patients
